The text below walks through data of US4202892A, “Biocidal methyladamantyl hydrazines and pharmaceutical compositions containing them” (Teva Pharmaceutical Industries, Ltd., priority 1977, dated 1980).

Values joined by “and” are separate entries in the source; they are usually repeats but may differ in a detail not shown here. Equal values may be shown once. Where a name gives a salt, the structure may show the parent alone.

In data set [1] the test system is stereotyped behaviour (sniffing, biting, repetitive head movement). In words: Stereotyped behaviour in mice. In kind it is in vivo, Male ICR albino mice. More on the design: stereotyped behaviour score / Total Score (stereotyped behaviour) / Mean Score (stereotyped behaviour): scale not given here. The method, then:
Male ICR albino mice weighing 25-30 g were put in cages with a metal grid floor, 4 in each cage. Drugs were injected intraperitoneally and stereotyped behaviour (sniffing, biting, repetitive head movement) was evaluated every 30 min.

Data set [2] concerns 4 mycoplasma (M. gallisepticum, capricolum, M. hominis, A. laidlawii). The experiment in a line: organism not typed. Format: cell-based. The settings on record: read-out: 50% inhibition of growth in liquid medium, concentration.
The test system of data set [3] is haloperidol-induced catalepsy. In words: Antiparkinson activity: anticataleptic effect in rats (haloperidol catalepsy). The conditions noted are these: individual rats, 80 mg/kg i.p., one line per rat, in order rat 1 to rat 5, hydrochloride. In kind it is in vivo, Male Charles River albino rats. The procedure: Male Charles River albino rats, weighing 200-250 g, were used. Catalepsy was produced by haloperidol, 5 mg/kg i.p. The animals were placed with their front paws on a horizontal bar, about 10 cm above the ground, and animals were considered cataleptic if not changing posture for at least 30 sec. Cataleptic animals were injected l.p. with one of the drugs at a dose of 40-80 mg/kg. Catalepsy was estimated again at the intervals indicated.
Male Charles River albino rats, wighing 200-250 g, were used. Catalepsy was produced by haloperidol, 5 mg/kg i.p. The animals were placed with their front paws on a horizontal bar, about 10 cm above the ground, and animals were considered cataleptic if not changing posture for at least 30 sec. Cataleptic animals were injected i.p. with one of the drugs at a dose of 40-80 mg/kg. catalepsy was estimated again at the intervals indicated.

A short description of data set [4]: Toxic limit in the HSV replication test. Format: cell-based, Green monkey. The conditions noted are these: monkey, bsc-1 cells; read-out: T.L. Toxic Limit (highest concentration of compound which is completely not toxic). The source says: BSC-1 (Green monkey Kidney)
*T.L. The highest concentration of compound which is completely not toxic

The subject of another data set is HSV-1 (Herpes Simplex). In words: Inhibition test on HSV replication. In kind it is cell-based. The settings on record: Human alphaherpesvirus 1, BSC-1 cells, 10 PFU/cell. The source says: |INHIBITION TEST ON HSV REPLICATION |Cells |BSC-1 (Green monkey Kidney) |Virus |HSV-1 (Herpes Simplex) |Inoculum |10 PFU/cell |Medium |DMEM + 10% C.S. | Herpes | J. Levitt & Y. Becker | Virology 31, 129-134 (1967) | **% Inhibition of control infected for some time with same virus PFV with | no inhibition.

The inhibition is the relative decrease from the control value, in per cent.

Turning to `C1CCN(NCC23CC4CC(CC(C4)C2)C3)C1` [Example 7, 1-(Adamant-1'-ylmethylamino)pyrrolidine hydrochloride], in data set [1] (0-240 min, 50 mg/kg i.p., one line per mouse, in order Mouse 1 to Mouse 4, hydrochloride, 50 mg/kg), the “Total Score (stereotyped behaviour)” value was 17 and 11 and 6 and 3. Besides, the stereotyped behaviour score in data set [1] (0 min, 50 mg/kg i.p., one line per mouse, in order Mouse 1 to Mouse 4) was 0; in data set [1] (30 min, 50 mg/kg i.p., one line per mouse, in order Mouse 1 to Mouse 4, hydrochloride, 50 mg/kg), 2 and 0 (3×); in data set [1] (45 min, 50 mg/kg i.p., one line per mouse, in order Mouse 1 to Mouse 4, hydrochloride, 50 mg/kg), 2 and 0 (2×) and 1; in data set [1] (60 min, 50 mg/kg i.p., one line per mouse, in order Mouse 1 to Mouse 4, hydrochloride, 50 mg/kg), 2 and 0 (3×); in data set [1] (90 min, 50 mg/kg i.p., one line per mouse, in order Mouse 1 to Mouse 4, hydrochloride, 50 mg/kg), 2 (2×) and 0 (2×); in data set [1] (120 min, 50 mg/kg i.p., one line per mouse, in order Mouse 1 to Mouse 4, hydrochloride, 50 mg/kg) it was 2 (2×) and 0 (2×). In addition, the stereotyped behaviour score in data set [1] (135 min, 50 mg/kg i.p., one line per mouse, in order Mouse 1 to Mouse 4, hydrochloride, 50 mg/kg) is 2 (2×) and 0 (2×); in data set [1] (150 min, 50 mg/kg i.p., one line per mouse, in order Mouse 1 to Mouse 4, hydrochloride, 50 mg/kg), 2 (2×) and 1 and 0; in data set [1] (180 min, 50 mg/kg i.p., one line per mouse, in order Mouse 1 to Mouse 4, hydrochloride, 50 mg/kg) it was 1 (3×) and 0; in data set [1] (210 min, 50 mg/kg i.p., one line per mouse, in order Mouse 1 to Mouse 4, hydrochloride, 50 mg/kg), 1 (2×) and 2 (2×); in data set [1] (240 min, 50 mg/kg i.p., one line per mouse, in order Mouse 1 to Mouse 4), 1. The “Mean Score (stereotyped behaviour)” value in data set [1] (mean of 4 mice, 50 mg/kg i.p.) came to 9.25. Moreover, the “found to be active” value in data set [1] (summary of the CNS tests) is “active”. Moreover, the IC50 in data set [2] lay within 5 to 30 µg/mL. The anticataleptic effect in data set [3] was 1/4 and 0/4 (3×) and 3/4. Moreover, in data set [4], the MNTC is 50 µg/mL. Also, at 25 µg/mL the inhibition in the data set with HSV-1 (Herpes Simplex) (25 μg/ml) was 72.5%. The compound also gave an inhibition at 50 µg/mL with HSV-1 (Herpes Simplex) (50 μg/ml) of 92%. In the data set on HSV-1 (Herpes Simplex) (75 μg/ml), this compound yielded an inhibition at 75 µg/mL of 98%. In addition, testing at 100 µg/mL in the data set with HSV-1 (Herpes Simplex) (100 μg/ml) gave an inhibition of 99.9%.
